Measurements published in publication PMC8956739, “A synthetic lipopeptide targeting top-priority multidrug-resistant Gram-negative pathogens” (Nature Communications, 2022).
Values joined by “and” are separate entries in the source; they are usually repeats but may differ in a detail not shown here. Equal entries are not always repeated.

How the values were obtained:
P. aeruginosa ATCC 27853 = experiment: Neutropenic mouse bloodstream infection model; type: in vivo; settings: single IV dose 4 mg/kg; for Δlog10 CFU/mL blood (mean): treated minus control, mean of replicates
In short: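 Female Swiss mice made neutropenic with cyclophosphamide (150 mg/kg day −4, 100 mg/kg day −1), infected IV with 50 µL of 4 × 10^8 CFU/mL. Lipopeptide 4 mg/kg (free base) IV at 2 h post-inoculation, n = 3. Efficacy = Δlog10 CFU/mL blood versus saline at 4 h post-dose.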

[1] = tested on: MDR clinical isolates of Enterobacterales (n = 177, 152 carbapenem-resistant); experiment: Extended MIC screening, MDR clinical isolates; type: cell-based
Description: MICs were determined in cation-adjusted Mueller–Hinton broth (CaMHB) by the broth micro-dilution method against ATCC strains and clinical isolates. MICs in the presence of Survanta® were determined as described above against P. aeruginosa ATCC 27853. In the 100 μL of fresh CaMHB containing polymyxins, 10% Survanta® (v/v, 2.5 mg/mL phospholipids) was added. MICs in the presence and absence of Survanta® were compared to determine the effect of binding to lung surfactant on the antibacterial activity of polymyxins.

[2] = tested on: K. pneumoniae FADDI-KP065; type: cell-based, Klebsiella pneumoniae; settings: carbapenem-resistant isolate
In short: (§1)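 Compounds were serially diluted in CaMHB, bacteria were added, and the lowest inhibitory concentration was recorded after broth microdilution testing.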

[3] = tested on: K. pneumoniae FADDI-KP032; type: cell-based, Klebsiella pneumoniae; settings: carbapenem-resistant isolate
In short: as §1

Which results are given for Polymyxin B [reference compound]?
Log10 CFU/mL blood at 4 h, Mean (P. aeruginosa ATCC 27853; 4 h): 4.76 Log10 CFU/mL blood; Δlog10 CFU/mL blood (mean) (P. aeruginosa ATCC 27853; 4 h, 4 mg/kg): -2.69 log10 CFU/mL blood; Δlog10 CFU/mL blood (mean) (P. aeruginosa ATCC 27853; 4 h, listed as PMB, 4 mg/kg): −2.69 log10 CFU/mL blood; Log10 CFU/mL blood at 4 h, single mouse (P. aeruginosa ATCC 27853; 4 h, 4 mg/kg): 4.60 Log10 CFU/mL blood and 4.85 Log10 CFU/mL blood and 4.82 Log10 CFU/mL blood; Delta Log10 CFU/mL blood at 4 h, single mouse (P. aeruginosa ATCC 27853; treated mouse minus mean of vehicle mice, 4 mg/kg): -2.84 Log10 CFU/mL blood and -2.60 Log10 CFU/mL blood and -2.63 Log10 CFU/mL blood; Number of isolates ([1]; isolates with MIC 0.05 µg/mL): 0; Number of isolates ([1]; isolates with MIC 0.125 µg/mL): 0; Number of isolates ([1]; isolates with MIC 0.25 µg/mL): 0; Number of isolates ([1]; isolates with MIC 0.5 µg/mL): 0; Number of isolates ([1]; isolates with MIC 1 µg/mL): 77; Number of isolates ([1]; isolates with MIC 2 µg/mL): 76; Number of isolates ([1]; isolates with MIC 4 µg/mL): 2; Number of isolates ([1]; isolates with MIC 8 µg/mL): 2; Number of isolates ([1]; isolates with MIC 16 µg/mL): 6; Number of isolates ([1]; isolates with MIC 32 µg/mL): 3; Number of isolates ([1]; isolates with MIC 64 µg/mL): 6; Number of isolates ([1]; isolates with MIC >64 µg/mL): 5; MIC K. pneumoniae FADDI-KP065 [2]: 0.25 µg/mL; MIC K. pneumoniae FADDI-KP032 [3]: 0.5 µg/mL
